Test results from PMC3958483, “Fine Specificity and Molecular Competition in SLAM Family Receptor Signalling” (PLoS ONE, 2014).
“Also recorded” adds a separate entry of the source.

Assays:
[1] = tested on: EAT-2; conditions: ref [30]; cited from earlier work
Excerpt: (§1) The specificities of their SH2 domains overlap, introducing the concept of competition between them for ITSMs in cells where they are co-expressed, including NK cells.

[2] = biological target: T1, SAP (Homo sapiens, UniProt O60880); assay: SPR binding of SAP to immobilised phosphopeptides; conditions: 37°C
T1 construct: His-tag; made in house; host or cells: E. coli BL21(DE3)pLysS
T1 sequence (O60880 1-128): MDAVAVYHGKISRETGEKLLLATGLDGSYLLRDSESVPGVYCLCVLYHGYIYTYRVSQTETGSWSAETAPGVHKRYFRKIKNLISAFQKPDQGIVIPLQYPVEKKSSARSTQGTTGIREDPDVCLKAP
Protocol: Measurements of protein-protein affinity were performed on BIAcore 3000 and T200 systems using CM5 or biotin capture chips (GE Healthcare Ltd, UK). Streptavidin was coupled to CM5 sensor chips using standard NHS/EDC chemical linkage, followed by immobilization of biotinylated peptides. The levels of peptide immobilized were approximately 25 and 50 response units respectively of single and tandem tyrosine motifs to facilitate saturating binding and limitation of “bridging” [22], [45]. […] Equilibrium binding coefficients and dissociation and association rates were calculated using BIAevaluation and/or GraphPad Prism 5.4 software.

[3] = biological target: T2, EAT-2 (Homo sapiens, UniProt O14796); assay: SPR binding of EAT-2 to immobilised phosphopeptides; conditions: 37°C
T2 construct: His-tag; made in house; host or cells: E. coli BL21(DE3)pLysS
T2 sequence (O14796 1-132): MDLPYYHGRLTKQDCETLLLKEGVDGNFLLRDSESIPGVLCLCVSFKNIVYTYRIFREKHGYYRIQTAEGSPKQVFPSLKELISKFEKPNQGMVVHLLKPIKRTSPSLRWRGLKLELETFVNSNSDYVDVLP
Excerpt: Biotinylated EAT-2 was produced by expression of full length human EAT-2 with a C-terminal BirA tag ([…]) in the E coli expression vector pTrcHisA. Constructs encoding the 6xHis-tagged tandem SH2 domains plus the SH3 domains of PLCγ1 (Swiss-Prot: P19174, aa 536–863) and PLCγ2 (Swiss-Prot: P16885, aa 519–838) were generated in pTrcHisA (5′ joining sequence with BglII site underlined: gag atc tcc translates as EIS). The molecular weight (MW) and theoretical extinction coefficients (EC) of recombinant PLCγ1 and PLCγ2 SH2-SH2-SH3 domains were PLCγ1; MW = 42531, EC = 63,830 M^−1 cm^−1 and PLCγ2; MW = 42415, EC = 67,270 M^−1 cm^−1.
Soluble recombinant proteins were produced in BL21(DE3)pLysS E. coli (Calbiochem) at 37°C in 2TY medium and induced at OD 600 = 0.6 with 0.1 mM IPTG for 4 h or in 2XYT auto-induction (Formedium) medium overnight. Bacterial pellets were resuspended in ∼0.1 volume 10 mM HEPES pH7.4, 150 mM NaCl and used immediately or stored at −20°C in 10 ml aliquots. His-tag mediated protein purification was performed on a Co^2+ or Ni^2+ column by standard protocols. […] Where applicable, proteins were stored frozen in 10–25 mM HEPES pH 7.4, 200–300 mM NaCl (pH 7.4).All proteins were purified by size exclusion chromatography immediately prior to SPR analysis.
Measurements of protein-protein affinity were performed on BIAcore 3000 and T200 systems using CM5 or biotin capture chips (GE Healthcare Ltd, UK). Streptavidin was coupled to CM5 sensor chips using standard NHS/EDC chemical linkage, followed by immobilization of biotinylated peptides. The levels of peptide immobilized were approximately 25 and 50 response units respectively of single and tandem tyrosine motifs to facilitate saturating binding and limitation of “bridging” [22], [45]. Purified recombinant proteins were passed over the immobilized peptides at a range of concentrations in HBS-EP buffer, 10 mM HEPES pH 7.4, 150 mM NaCl, 3.4 mM EDTA, 0.005% surfactant, P20. Equilibrium binding coefficients and dissociation and association rates were calculated using BIAevaluation and/or GraphPad Prism 5.4 software.
as §1

[4] = Pull-down with phosphorylated CD244 ITSM1 from NK cell lysates, LC-MS/MS; format: binding; conditions: human NK cell lysates; compared with control phosphopeptide SHIP-1 Y865
Protocol: For pull-down of associated proteins, streptavidin Sepharose (GE Healthcare) was pre-coated with saturating amounts of peptide or EAT-2. NK92 cells (4×10^8) were treated with 500 μM pervanadate for 15 minutes, then lysed in PBS, 1% Triton X-100, 1 mM sodium orthovanadate in the presence of mammalian protease inhibitor solution (Sigma). Lysates were pre-cleared by centrifugation, followed by incubation with streptavidin Sepharose. Peptide or EAT-2-coated streptavidin beads were incubated with NK92 lysates for 2 hours at 4°C with rotation. Beads were washed once with 15 ml ice cold PBS/1% (v/v) Triton X-100. Bound protein was eluted using 100 mM glycine-HCl pH 2.5.
Protein samples were prepared for mass spectrometry as described previously. Briefly, eluted proteins were spun onto the membranes of Vivacon 500 filters (10,000 MWCO – Sartorius). Membranes were washed once with PBS then proteins were denatured with 8 M urea, reduced with 10 mM DTT in 25 mM ammonium bicarbonate buffer, followed by alkylation with 50 mM iodoacetamide. Proteins were then digested overnight with trypsin. Tryptic peptides were then eluted from the membrane and analyzed on an Ultimate 3000 HPLC-coupled Orbitrap XL mass spectrometer. Proteins were identified by liquid chromatography-coupled tandem mass-spectrometry (LC-MS/MS). Raw data files were converted to mzXML format using ReADW (v. 4.2.1) and submitted to the Central Proteomics Facilities Pipeline for database comparison and peptide identification. Searching against the International Protein Index (IPI) human protein sequence database for protein identification, protein and peptide hits were statistically validated by applying a 1% false discovery rate (FDR) by searching against a concatenated target/decoy database. Datasets were searched with variable peptide modifications for phosphotyrosine, phosphoserine, phosphothreonine, oxidation of methionine and deamination.
Protein identification data were exported into ProteinCenter (v3.8.3013 – Thermo Fisher) for filtering and annotation. Results were filtered to remove any proteins with less than 3 unique peptides, less than 10 percent sequence coverage, or median protein probability scores less than 0.5. To establish sample specificity, any protein with at least 10-fold greater sequence coverage in one sample compared with the other was considered to be specific for that sample.
Similarly, differences in specificity of inhibitory SH2 domain containing proteins for ITSMs are relevant to understanding mechanisms of inhibition by ITSMs. We focused on CD244 ITSMs to establish general paradigms.

In the case of “ADYDTI [mouse CRACC tyrosine motif in the equivalent position to human CRACC ITSM1]”, the “binding of EAT-2 to mouse CRACC motif” value [1] is given as “did not bind EAT-2”.

In the case of “Biotin-GENTEpYDTIPH [CRACC ITSM1, synthetic biotinylated phosphopeptide from human CRACC ITSM1]”, the “binding of SAP” value [2] is reported as “Neither SAP nor EAT-2 bound; also recorded: No specific association” and the “binding of EAT-2” value [3] is reported as “Neither SAP nor EAT-2 bound; also recorded: No specific association”.

In the case of “Growth factor receptor-bound protein 2 (GRB2): SH2 domain containing protein pulled down by CD244 ITSM1”, the “pull-down by CD244 ITSM1” value [4] is reported as “pulled down by the ITSM peptide”.

With “SHP-1: SH2 domain containing phosphatase” the “pull-down by CD244 ITSM1” value [4] was “pulled down by the ITSM peptide”.

In the case of “SHP-2: SH2 domain containing tyrosine phosphatase”, the “pull-down by CD244 ITSM1” value [4] is reported as “pulled down by the ITSM peptide”.
